# Reference: the Deep4Chem optical property database
# Assay: solvent given as SMILES
# [1] = in O=P(c1ccccc1)(c1ccccc1)c1ccccc1Oc1ccccc1P(=O)(c1ccccc1)c1ccccc1
structure (smiles),measurement,setting,value
CCC1=C(C)C(=O)n2c1cc1[nH]c(C(=O)OC(C)(C)C)c(C)c1c2=O,emission maximum,in C1CCCCC1,443 nm
same,emission maximum,in CO,505 nm
same,emission maximum,in CS(C)=O,483 nm
same,emission maximum,in ClC(Cl)Cl,453 nm
same,emission maximum,in c1ccccc1,443 nm
c1ccc2c(c1)c1ccccc1n2-c1ccc(-c2nnc(-c3ccc(-n4c5ccccc5c5ccccc54)cc3)o2)cc1,emission maximum,in Cc1ccccc1,386 nm
same,emission maximum,[1],414 nm
FC(F)(F)C(F)(F)C(F)(F)C1=NC2=C(Br)C=C3c4cc(Br)c5nc(C(F)(F)C(F)(F)C(F)(F)F)nc6c(Br)cc(c4c56)=C4C=C(Br)C(=N1)C2C34 (configuration not stated),emission maximum,in C1CCOC1,486 nm
C[Si](C)(C)[Si](C)(C)c1c2ccccc2cc2ccccc12,emission maximum,in C1CCCCC1,429 nm
same,emission maximum,in CC#N,430 nm
COC(=O)[C@H](Cc1ccccc1)Nc1c(C(C)=O)c(=O)oc2cc(N(C)C)ccc12,emission maximum,in ClCCl,449 nm
c1ccc([B-]2(c3ccccc3)Oc3ccc4ccccc4c3-c3c4ccccc4nc[n+]32)cc1,emission maximum,in Cc1ccccc1,543 nm
CCOC(=O)CN1C(=O)C2=C(c3ccc(N4CCCCC4)cc3)N(CC(=O)OCC)C(=O)C2=C1c1ccccc1,emission maximum,in CC#N,587 nm
same,emission maximum,in CS(C)=O,601 nm
same,emission maximum,in Cc1ccccc1,563 nm
Cc1cc2sccc2c2[nH]c3ccccc3c12,emission maximum,in ClCCl,346 nm
COc1cc(C#Cc2ccccc2)c(C#Cc2ccccc2)cc1OC,emission maximum,in CC#N,380 nm
CC[n+]1c(-c2ccccc2)c2cc(N)ccc2c2ccc(NC(N)=[NH2+])cc21,emission maximum,in O,590 nm
C1=C(c2ccccc2)C2=Nc3c(-c4ccccc4)cc4n3[B-]3(Oc5ccccc5C1=[N+]23)Oc1ccccc1-4 (configuration not stated),emission maximum,in Cc1ccccc1,746 nm
c1ccc(-n2c3ccccc3c3c2c2ccccc2n3-c2ccccc2)cc1,emission maximum,in Cc1ccccc1,376 nm
CC1(C)c2ccccc2N(c2ccc(-c3cccc(C#N)c3)cc2)c2ccccc21,emission maximum,in Cc1ccccc1,431 nm
same,emission maximum,in N#Cc1ccc2c(c1)c1ccccc1n2-c1cccc(-n2c3ccccc3c3ccccc32)c1,436 nm
COc1ccc(-c2cc3c(o2)=CC2=C(C(F)(F)F)c4cc5oc(-c6ccc(OC)cc6)cc5n4[B-](F)(F)[N+]=32)cc1,emission maximum,in ClC(Cl)Cl,738 nm
O=C1OC(=O)c2ccc(N(c3ccccc3)c3ccc4ccc5cccc6ccc3c4c56)c3cccc1c23,emission maximum,in CCCCCC,536 nm
same,emission maximum,in c1ccccc1,605 nm
COC(=O)C(NC(=O)OC(C)(C)C)c1ccc2oc(-c3ccc(F)cc3)nc2c1 (configuration not stated),emission maximum,in CC1CCCCC1,320 nm
same,emission maximum,in CC#N,341 nm
same,emission maximum,in CO,342 nm
COc1ccc(N2c3sc4ccccc4c3Sc3c2sc2ccccc32)cc1,emission maximum,in ClCCl,549 nm
CC[n+]1c(-c2ccccc2)c2cc(NC(N)=O)ccc2c2ccc(N)cc21,emission maximum,in O,601 nm
COC(=O)c1c(-c2cc3ccccc3oc2=O)nn(-c2cccc(F)c2)c1C(=O)OC,emission maximum,in ClCCl,402 nm
COc1cccc2cc(C)c3c4ccccc4n(C)c3c12,emission maximum,in ClCCl,380 nm
CN(C)c1ccc2nc(-c3ccc(C=C(C#N)C#N)cc3)sc2c1,emission maximum,in C1CCCCC1,526 nm
same,emission maximum,in ClC(Cl)Cl,683 nm
N#Cc1ccccc1N1c2ccccc2C(c2ccccc2)(c2ccccc2)c2ccccc21,emission maximum,in Cc1ccccc1,441 nm
Cc1cc(C)n2c1C=C1c3ccccc3C(c3cccn3C)=[N+]1[B-]2(F)F,emission maximum,in C1CCOC1,608 nm
same,emission maximum,in CC#N,606 nm
same,emission maximum,in CCCCCC,605 nm
same,emission maximum,in CO,605 nm
same,emission maximum,in Cc1ccccc1,613 nm
same,emission maximum,in ClCCl,611 nm
c1ccc(-n2c3ccccc3c3cc(C4(c5ccc6c(c5)c5ccccc5n6-c5ccccc5)c5cc(-c6ccc7ccc8cccc9ccc6c7c89)ccc5-c5ccc(-c6ccc7ccc8cccc9ccc6c7c89)cc54)ccc32)cc1,emission maximum,in ClCCl,423 nm
O=C([O-])c1ccccc1-c1c2cc(Br)c(=O)c(Br)c-2oc2c(Br)c([O-])c(Br)cc12,emission maximum,in CC(C)O,551 nm
same,emission maximum,in CCO,550 nm
same,emission maximum,in CO,542 nm
same,emission maximum,in O,538 nm
Cc1ccc(N(c2ccc(C)cc2)c2ccc3c4cccc5c(N(c6ccc(C)cc6)c6ccc(C)cc6)ccc(c6cccc2c63)c54)cc1,emission maximum,in C1CCCCC1,546 nm
same,emission maximum,in C1CCOC1,551 nm
same,emission maximum,in CC#N,574 nm
same,emission maximum,in Cc1ccccc1,548 nm
same,emission maximum,in ClCCl,568 nm
CC(C)(C)c1ccc2ccc3c(C(C)(C)C)ccc4ccc1c2c43,emission maximum,in CCCCCC,379 nm
same,emission maximum,in CO,379 nm
same,emission maximum,in ClCCl,380 nm
c1ccc([B-]23NC(C4CCCCC4)=Nc4cccc([n+]42)N=C(C2CCCCC2)N3)cc1,emission maximum,in ClCCl,456 nm
CCCCn1c(-c2ccc(-c3ccc(-c4ccc(-c5n(CCCC)c6ccccc6[n+]5CCCC)cc4)cc3)cc2)[n+](CCCC)c2ccccc21,emission maximum,in O,397 nm
COc1ccc(-c2csc(/C(C#N)=C/c3c(Cl)cccc3Cl)n2)cc1,emission maximum,in CC#N,550 nm
CN(C)c1ccc(/C=C/c2cc[n+](Cc3cc(C[n+]4ccc(/C=C/c5ccc(N(C)C)cc5)cc4)cc(C[n+]4ccc(/C=C/c5ccc(N(C)C)cc5)cc4)c3)cc2)cc1,emission maximum,in C1COCCO1,580 nm
same,emission maximum,in CC(C)O,607 nm
same,emission maximum,in CCCCCCCCO,595 nm
same,emission maximum,in CCCCO,608 nm
same,emission maximum,in CCCO,611 nm
same,emission maximum,in CCO,613 nm
same,emission maximum,in CO,618 nm
same,emission maximum,in CS(C)=O,627 nm
same,emission maximum,in ClC(Cl)Cl,580 nm
same,emission maximum,in ClCCl,600 nm
COc1ccc(-c2cc(-c3ccc(N(C)C)cc3)nc(-c3ccccc3)n2)cc1,emission maximum,in ClC(Cl)Cl,453 nm
O=C(O)c1ccc(C2=C(/C=C/c3[se]c4ccccc4[n+]3CCCCS(=O)(=O)[O-])CCC/C2=C\C=C2/[Se]c3ccccc3N2CCCCS(=O)(=O)[O-])cc1,emission maximum,in CO,813 nm
Oc1ccccc1/C=N/CC/N=C/c1ccccc1O,emission maximum,in CC#N,461 nm
CC(C)(C)c1ccc2c(c1)c1cc(C(C)(C)C)ccc1n2-c1cccc(-c2nc(-c3cccc(P(=O)(c4ccccc4)c4ccccc4)c3)nc(-c3cccc(P(=O)(c4ccccc4)c4ccccc4)c3)n2)c1,emission maximum,in C1CCOC1,511.91 nm
same,emission maximum,in CC#N,581.72 nm
same,emission maximum,in CC(C)=O,554.6 nm
same,emission maximum,in CN(C)C=O,567.81 nm
same,emission maximum,in Cc1ccccc1,480.78 nm
same,emission maximum,in ClC(Cl)Cl,512.5 nm
same,emission maximum,in ClCCl,535.02 nm
same,emission maximum,[1],484 nm
CCC1=C(C)C2=C(/C=C/c3ccc([N+](=O)[O-])cc3)c3c(C)c(CC)c(C)n3[B-](F)(F)[N+]2=C1C,emission maximum,in ClCCl,532 nm
COC(=O)c1ccc(Oc2ccc3c4c(cccc24)C(=O)N(c2c(C(C)C)cccc2C(C)C)C3=O)cc1,emission maximum,in ClCCl,421 nm
O=Cc1ccc(C2=C3C=c4c(oc5ccccc45)=[N+]3[B-](F)(F)n3c2cc2c4ccccc4oc23)cc1,emission maximum,in C1CCCCC1,612 nm
same,emission maximum,in C1CCOC1,615 nm
same,emission maximum,in CC#N,611 nm
same,emission maximum,in CCOC(C)=O,610 nm
same,emission maximum,in CN(C)C=O,615.5 nm
same,emission maximum,in CO,609.5 nm
same,emission maximum,in Cc1ccccc1,620.5 nm
same,emission maximum,in ClCCl,618.5 nm
CC(C)(C)c1ccc2c(c1)c1cc(C(C)(C)C)ccc1n2-c1ccc(N(c2ccc(-c3ccc(-c4ccc(N(c5ccc(-n6c7ccc(C(C)(C)C)cc7c7cc(C(C)(C)C)ccc76)cc5)c5ccc(-n6c7ccc(C(C)(C)C)cc7c7cc(C(C)(C)C)ccc76)cc5)cc4)c4nsnc34)cc2)c2ccc(-n3c4ccc(C(C)(C)C)cc4c4cc(C(C)(C)C)ccc43)cc2)cc1,emission maximum,in ClCCl,600 nm
Cc1ccc(C2C(C#N)=C(N)n3c(=O)c4ccccc4c(=O)n32)cc1 (configuration not stated),emission maximum,in CS(C)=O,450 nm
C(=C\c1cc2ccccc2c2ccccc12)/c1c2ccccc2cc2ccccc12,emission maximum,in C1CCOC1,510 nm
F[Si-](F)(c1c2ccccc2cc2ccccc12)(c1c2ccccc2cc2ccccc12)c1c2ccccc2cc2ccccc12,emission maximum,in C1CCOC1,396 nm
CCOC(=O)CCCCCn1c2ccc(F)cc2c(=O)c2cc3c(cc21)c(=O)c1cc(F)ccc1n3CCCCCC(=O)OCC,emission maximum,in CO,566 nm
CC1=CC(C)=[N+]2C1=C(c1ccc(O)cc1)c1c(C)cc(/C=C/C=C3/N(C)c4ccccc4C3(C)C)n1[B-]2(F)F,emission maximum,in O,708 nm
c1ccc(Nc2nc(Nc3ccccc3)nc(Nc3ccc4cc5ccccc5cc4c3)n2)cc1,emission maximum,in C1COCCO1,442 nm
same,emission maximum,in CC#N,441 nm
same,emission maximum,in CCCCOCCCC,441 nm
same,emission maximum,in CCOC(C)=O,440 nm
C(=C\c1ccc(/C=C/c2ccc(N(c3ccccc3)c3ccccc3)cc2)c2nsnc12)/c1ccc(N(c2ccccc2)c2ccccc2)cc1,emission maximum,in C1CCOC1,637 nm
same,emission maximum,in CCOC(C)=O,627 nm
same,emission maximum,in CN(C)C=O,690 nm
same,emission maximum,in Cc1ccccc1,611 nm
same,emission maximum,in ClC(Cl)Cl,651 nm
same,emission maximum,in ClCCl,659 nm
c1ccc2c(c1)c1ccccc1n2-c1cc(-c2nc3ccccn3n2)cc(-n2c3ccccc3c3ccccc32)c1,emission maximum,in Cc1ccccc1,373 nm
CCCCCCCCN1C(=O)c2ccc3c4c(-c5ccc6c7ccccc7n(-c7ccccc7)c6c5)cc5c6c(ccc(c7c(-c8ccc9c%10ccccc%10n(-c%10ccccc%10)c9c8)cc(c2c37)C1=O)c64)C(=O)N(CCCCCCCC)C5=O,emission maximum,in ClC(Cl)Cl,647 nm
CN(C)c1ccc2nc3c(cc2c1)c(-c1ccccc1)nn3-c1ccccc1,emission maximum,in C1CCCCC1,444.44 nm
same,emission maximum,in C1CCOC1,534.19 nm
same,emission maximum,in CC#N,561.48 nm
same,emission maximum,in CC(C)=O,552.79 nm
same,emission maximum,in CCCCCl,516 nm
same,emission maximum,in CCCCOCCCC,498.75 nm
same,emission maximum,in CN(C)C=O,566.89 nm
CC[n+]1c(-c2ccccc2)c2cc(-n3cccc3)ccc2c2ccc(-n3cccc3)cc21,emission maximum,in O,502 nm
N#Cc1nc2c3ccc(N(c4ccccc4)c4ccccc4)cc3c3cc(N(c4ccccc4)c4ccccc4)ccc3c2nc1C#N,emission maximum,in C1COCCO1,586.91 nm
same,emission maximum,in CCCCCC,515.27 nm
same,emission maximum,in Cc1ccccc1,566 nm
same,emission maximum,in ClC(Cl)Cl,639.45 nm
same,emission maximum,in O=P(c1ccccc1)(c1ccccc1)c1cccc(-c2cc(-n3c4ccccc4c4ccccc43)cc(-n3c4ccccc4c4ccccc43)c2)n1,606 nm
Clc1cc(Cl)c([C](c2c(Cl)cc(Cl)cc2Cl)c2c(Cl)cc(-n3c4ccccc4c4ccccc43)cc2Cl)c(Cl)c1,emission maximum,in C1CCCCC1,628 nm
same,emission maximum,in ClC(Cl)Cl,680 nm
Cc1cc(C)c(B2c3cc(C(C)(C)C)ccc3-c3cc4ccccc4c4cc(C(C)(C)C)cc2c34)c(C)c1,emission maximum,in C1CCCCC1,420 nm
